Four compounds from patent publication US8415349B2, “Dicycloazaalkane derivatives, preparation processes and medical uses thereof” (Jiangsu Hansoh Pharmaceuticals Co., Ltd., priority 2008, dated 2013) can be followed below.

Usually IC50 stands for the concentration that gives 50% inhibition. A high value points to lower potency.

The subject of one data set is KKAy mice. The data set is described as follows: Oral glucose tolerance test in type II diabetes KKAy mice. The note with it: 30 min after glucose. It counts as in vivo. How it is done:
Species, Strains: KKAy mice Preparation Method: […] The volume is 10 mL/kg. The Effects of the Compounds on Blood Glucose in KKay Mice Normal KKAy mice had been fasted for 6 hours, and then were randomly grouped according to the weights and fasting blood glucose, 5 mice in each group. The groups included a blank control group as well as different doses of the treatment groups as follows: Test 1: male 0704 Blank control: double-distilled water by gavage […] Test 2: female 0816 Blank control: double-distilled water by gavage […] Test 3: male 0712 Black control: double-distilled water by gavage […] Test 4: female 0907 Black control: double-distilled water by gavage […] 3. Mean±SD and Student-t test, or Anova was used in statistical analysis. 4.

For the next data set, the system named is normal ICR mice. The data set is described as follows: Oral glucose tolerance test in normal ICR mice (hypoglycemic effect). The format is in vivo. To be noted: 2.5 g/kg glucose, 30 min after glucose. How it is done:
Species, strains: ICR mice […] The volume is 20 mL/kg. […] The volume is 20 mL/kg. 1. The effects of compounds on blood glucose levels in normal ICR mice Normal male ICR mice were randomly grouped according to weights, 6 mice in each group. The groups included a black control group as well as different doses of the treatment groups as follows: Test 1: Blank control: double-distilled water by gavage. Group 1: the compound of Example 1, 1 mg/kg by gavage; […] Test 2: Blank control: double-distilled water by gavage. Group 1: the compound of Example 1, 1 mg/kg by gavage; […] 2. Serum Glucose Determination: […] The blank tube was used to set the instrument to zero, the colorimetric assay was performed at OD 505 nm. Serum glucose concentration (BG, mmol/l)=ODsample tube/ODstandard tube×5.55 Data Processing and Statistical Analysis: 1. Mean±SD and Student-t test were used in statistical analysis. 2.

For another data set, the target named is T1, DPP-IV (Homo sapiens, UniProt P27487).
T1 construct: purchased Calbiochem 317630
T1 sequence (P27487 whole entry): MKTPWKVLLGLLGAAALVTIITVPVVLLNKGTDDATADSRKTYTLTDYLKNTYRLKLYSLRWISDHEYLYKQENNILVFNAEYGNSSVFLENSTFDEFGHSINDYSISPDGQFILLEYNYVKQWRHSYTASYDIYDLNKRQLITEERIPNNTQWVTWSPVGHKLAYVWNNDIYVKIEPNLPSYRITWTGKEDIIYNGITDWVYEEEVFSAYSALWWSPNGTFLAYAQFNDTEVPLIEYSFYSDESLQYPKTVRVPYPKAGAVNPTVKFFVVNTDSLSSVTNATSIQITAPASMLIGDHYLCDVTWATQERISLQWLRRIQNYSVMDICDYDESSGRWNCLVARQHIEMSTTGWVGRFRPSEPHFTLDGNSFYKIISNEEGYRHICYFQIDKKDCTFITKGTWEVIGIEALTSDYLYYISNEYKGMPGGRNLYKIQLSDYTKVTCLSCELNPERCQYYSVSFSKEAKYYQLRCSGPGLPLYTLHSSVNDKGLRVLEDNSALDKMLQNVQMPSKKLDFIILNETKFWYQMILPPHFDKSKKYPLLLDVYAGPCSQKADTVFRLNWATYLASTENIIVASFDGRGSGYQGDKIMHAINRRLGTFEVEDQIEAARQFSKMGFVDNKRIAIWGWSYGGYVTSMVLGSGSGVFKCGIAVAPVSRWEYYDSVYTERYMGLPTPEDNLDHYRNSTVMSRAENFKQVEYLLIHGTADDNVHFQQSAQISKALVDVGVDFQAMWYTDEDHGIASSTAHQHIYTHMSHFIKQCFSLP
The data set is described as follows: Assay for DPP-IV inhibitory activity (DPP-IV-Glo luminescence). The note with it: purified DPP-IV enzyme. It counts as biochemical. From the text:
2. […] 3. […] 4. […] 5. […] 7. […] 9. […] 10. […] 11. […] 12.

The target of a further data set is T2, DPP-VIII (Homo sapiens, UniProt Q6V1X1).
T2 construct: purchased Bioscience 80080
T2 sequence (Q6V1X1 whole entry): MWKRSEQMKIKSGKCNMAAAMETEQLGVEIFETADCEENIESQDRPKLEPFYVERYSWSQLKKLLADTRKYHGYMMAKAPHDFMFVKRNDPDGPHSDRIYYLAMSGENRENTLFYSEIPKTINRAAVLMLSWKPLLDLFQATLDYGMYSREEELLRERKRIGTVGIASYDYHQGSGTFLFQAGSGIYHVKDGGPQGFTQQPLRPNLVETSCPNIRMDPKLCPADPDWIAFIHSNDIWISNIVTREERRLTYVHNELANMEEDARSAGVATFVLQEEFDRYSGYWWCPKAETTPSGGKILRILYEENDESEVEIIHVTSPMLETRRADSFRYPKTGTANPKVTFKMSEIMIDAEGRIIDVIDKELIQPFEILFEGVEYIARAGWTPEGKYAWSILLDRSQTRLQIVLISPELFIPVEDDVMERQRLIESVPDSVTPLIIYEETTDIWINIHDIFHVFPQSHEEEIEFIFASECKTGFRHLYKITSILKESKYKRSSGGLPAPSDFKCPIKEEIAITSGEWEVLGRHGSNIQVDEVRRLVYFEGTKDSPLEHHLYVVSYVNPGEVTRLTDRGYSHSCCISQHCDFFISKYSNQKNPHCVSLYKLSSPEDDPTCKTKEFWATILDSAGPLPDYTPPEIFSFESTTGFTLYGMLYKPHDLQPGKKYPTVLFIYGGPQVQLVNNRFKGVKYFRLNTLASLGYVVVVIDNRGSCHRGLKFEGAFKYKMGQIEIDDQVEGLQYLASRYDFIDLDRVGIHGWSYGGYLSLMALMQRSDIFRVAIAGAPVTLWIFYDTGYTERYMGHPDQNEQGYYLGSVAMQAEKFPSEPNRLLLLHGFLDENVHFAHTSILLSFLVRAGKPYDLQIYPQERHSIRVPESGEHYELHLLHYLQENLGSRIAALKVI
The data set is described as follows: Assay for DPP-VIII inhibitory activity (luminescence). It counts as biochemical. To be noted: purified DPP-VIII enzyme.

The target in another data set is T3, DPP-IX (Homo sapiens, UniProt Q86TI2).
T3 construct: purchased Bioscience 80090
T3 sequence (Q86TI2 whole entry): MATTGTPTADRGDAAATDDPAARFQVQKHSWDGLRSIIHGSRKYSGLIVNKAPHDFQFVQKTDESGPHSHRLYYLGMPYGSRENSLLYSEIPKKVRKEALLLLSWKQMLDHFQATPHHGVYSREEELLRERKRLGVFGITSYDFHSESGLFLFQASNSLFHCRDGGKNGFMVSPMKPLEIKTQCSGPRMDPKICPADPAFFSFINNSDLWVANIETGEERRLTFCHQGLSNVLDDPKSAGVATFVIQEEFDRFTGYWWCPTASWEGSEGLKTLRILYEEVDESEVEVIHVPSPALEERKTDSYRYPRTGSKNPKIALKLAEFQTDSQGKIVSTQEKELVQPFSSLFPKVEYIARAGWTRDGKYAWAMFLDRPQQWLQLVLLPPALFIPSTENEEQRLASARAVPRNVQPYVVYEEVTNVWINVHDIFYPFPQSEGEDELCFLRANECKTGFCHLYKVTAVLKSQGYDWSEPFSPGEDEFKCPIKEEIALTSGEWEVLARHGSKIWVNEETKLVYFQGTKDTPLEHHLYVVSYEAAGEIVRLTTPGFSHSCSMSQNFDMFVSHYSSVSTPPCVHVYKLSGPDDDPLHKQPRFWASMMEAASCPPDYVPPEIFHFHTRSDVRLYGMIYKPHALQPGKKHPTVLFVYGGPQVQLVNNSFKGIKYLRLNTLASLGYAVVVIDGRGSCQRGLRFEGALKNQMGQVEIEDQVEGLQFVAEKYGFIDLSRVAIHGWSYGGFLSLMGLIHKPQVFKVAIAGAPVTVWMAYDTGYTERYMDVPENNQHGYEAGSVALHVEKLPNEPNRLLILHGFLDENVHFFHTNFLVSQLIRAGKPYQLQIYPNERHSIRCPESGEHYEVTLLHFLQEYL
The data set is described as follows: Assay for DPP-IX inhibitory activity (luminescence). The format is biochemical. To be noted: purified DPP-IX enzyme.

Data set [1] in a line: Observation of water solubility when preparing dosing liquid. It counts as physicochemical. To be noted: double distilled water; visible particles at 0.5 mg/mL, dissolved at low concentration. How it is done: Preparation Method: Compounds were weighed accurately, and then dissolved in double distilled water. The suspensions of 0.5, 0.15 and 0.05 mg/mL were prepared, respectively.

The mark [2] stands for this setting: female KKAy mice, 10 mg/kg by gavage, 2.5 g/kg glucose.
Where [3] appears, read: male KKAy mice, 10 mg/kg by gavage, 1.5 g/kg glucose.
Where [4] appears, read: male KKAy mice, 30 mg/kg by gavage, 1.5 g/kg glucose.
Setting [5] is: Test 1, male ICR mice, high dose 10 mg/kg by gavage.
The mark [6] stands for this setting: Test 1, male ICR mice, low dose 1 mg/kg by gavage.
The mark [7] stands for this setting: Test 1, male ICR mice, middle dose 3 mg/kg by gavage.
[8] abbreviates: Test 2, male ICR mice, high dose 10 mg/kg by gavage.
Setting [9] is: Test 2, male ICR mice, low dose 1 mg/kg by gavage.
[10] abbreviates: Test 2, male ICR mice, middle dose 3 mg/kg by gavage.

Structures can show the parent of a compound that is named as a salt.

On to `COC(=O)N1C[C@H]2C[C@@H](NCC(=O)N3CCC[C@H]3C#N)C[C@H]2C1` [Example 2, hydrochloride], for which the “percentage of blood glucose decreased vs control group at 30 minutes” value (from here on “percentage of blood glucose decreased”) in the data set with KKAy mice (setting [2]) is 21.55%; in the data set on KKAy mice (setting [3]), 13.79%; with KKAy mice (setting [4]) it was 12.23%; in the data set on normal ICR mice (setting [5]), 26.93%; with normal ICR mice (setting [6]) it was 25.54%; in the data set on normal ICR mice (setting [7]) it was 25.92%. Also, the “percentage of blood glucose decreased” value with normal ICR mice (setting [8]) was 27.75%; in the data set on normal ICR mice (setting [9]) it was 24.51%; with normal ICR mice (setting [10]) it was 26.96%.

In the case of `CN(C)C(=O)N1C[C@@H]2C[C@@](C)(NCC(=O)N3C[C@@H](F)C[C@H]3C#N)C[C@@H]2C1` [Example 18, 5-[2-((2S,4S)-2-Cyano-4-fluoro-pyrrolidin-1-yl)-2-oxo-ethylamino]-5-methyl-hexahydro-cyclopenta[c]pyrrole-2-carboxylic acid dimethylamide p-toluenesulfonate], the half-maximal inhibitory concentration (IC50) was 39 nM against DPP-IV, 3320 nM against DPP-VIII and 380 nM on DPP-IX.

For `CN(C)C(=O)N1C[C@@H]2C[C@](C)(NCC(=O)N3C[C@@H](F)C[C@H]3C#N)C[C@@H]2C1` [Example 13, 5-[2-((2S,4S)-2-Cyano-4-fluoro-pyrrolidin-1-yl)-2-oxo-ethylamino]-N,N,5-tirmethyl-hexahydro-cyclopenta[c]pyrrole-2-carboxamide tartrate], the IC50 stood at 10 nM against DPP-IV, 371 nM on DPP-VIII and 516 nM against DPP-IX.

Take `CN(C)C(=O)N1C[C@H]2C[C@@H](NCC(=O)N3CCC[C@H]3C#N)C[C@H]2C1` [Example 1, cis-5-[2-((S)-2-Cyano-pyrrolidin-1-yl)-2-oxo-ethylamino]-N,N-dimethyl-hexahydro-cyclopenta[c]pyrrole-2-carboxamide hydrochloride]: the “percentage of blood glucose decreased” value in the data set with KKAy mice (female KKAy mice, 3 mg/kg by gavage, 2.5 g/kg glucose) was found to be 40.63%; with KKAy mice (setting [2]) it was 24.68%; in the data set on KKAy mice (setting [3]), 16.22%; in the data set with KKAy mice (setting [4]) it was 17.15%; in the data set with normal ICR mice (setting [5]), 31.85%; in the data set with normal ICR mice (setting [6]), 19.16%. In addition, the “percentage of blood glucose decreased” value stood at 22.85% with normal ICR mice (setting [7]), 32.05% in the data set with normal ICR mice (setting [8]), 26.10% with normal ICR mice (setting [9]) and 30.24% with normal ICR mice (setting [10]). In addition, the “water solubility (observation)” value in data set [1] is listed as “poorly water-soluble”.
